In ChEMBL document CHEMBL1128372, “Design and syntheses of potent and selective dipeptide inhibitors of Candida albicans myristoyl-CoA:protein N-myristoyltransferase” (J Med Chem, 1995):
Where a SMILES comes first, the peptide text is derived from it. [ ]: non-standard residue; d: D form. Aun = NCCCCCCCCCCC(=O)O

System: not listed separately
Test: Selectivity is the ratio of the IC50 against human NMT to the IC50 against Candida albicans NMT.
Type: functional

Row | SMILES | Selectivity
1 | CC(C)CCNC(=O)[C@H](CCCCN)NC(=O)[C@H](CO)NC(=O)CCCCCCCCCCN | 0.5
2 | CC(C)C[C@H](NC(=O)[C@H](CCCCN)NC(=O)[C@H](CO)NC(=O)CCCCCCCCCCN)C(N)=O (H-[Aun]SKL-NH2) | 0.2
3 | NCCCC[C@H](NC(=O)[C@H](CO)NC(=O)Cc1ccc(CCCCn2ccnc2)cc1)C(=O)NCCC1CCCCC1 | 38
4 | NCCCC[C@H](NC(=O)[C@H](CO)NC(=O)CCCCCCCCCCn1ccnc1)C(=O)NCCC1CCCCC1 | 7.1
5 | NCCCCCCCCCCC(=O)N[C@@H](CO)C(=O)N[C@@H](CCCCN)C(=O)NCCC1CCCCCCC1 | 3.8

Molecular target: Peptide N-myristoyltransferase (Candida albicans)

Row | Ki | SMILES
6 | 590 nM | NCCCC[C@H](NC(=O)[C@H](CO)NC(=O)Cc1ccc(CCCCn2ccnc2)cc1)C(=O)NCCC1CCCCC1
7 | 760 nM | NCCCC[C@H](NC(=O)[C@H](CO)NC(=O)CCCCCCCCCCn1ccnc1)C(=O)NCCC1CCCCC1
8 | 130 nM | NCCCCCCCCCCC(=O)N[C@@H](CO)C(=O)N[C@@H](CCCCN)C(=O)NCCC1CCCCCCC1

Molecular target: T1, Peptide N-myristoyltransferase (Homo sapiens, UniProt P30419+O60551)
T1 sequence (P30419 whole entry): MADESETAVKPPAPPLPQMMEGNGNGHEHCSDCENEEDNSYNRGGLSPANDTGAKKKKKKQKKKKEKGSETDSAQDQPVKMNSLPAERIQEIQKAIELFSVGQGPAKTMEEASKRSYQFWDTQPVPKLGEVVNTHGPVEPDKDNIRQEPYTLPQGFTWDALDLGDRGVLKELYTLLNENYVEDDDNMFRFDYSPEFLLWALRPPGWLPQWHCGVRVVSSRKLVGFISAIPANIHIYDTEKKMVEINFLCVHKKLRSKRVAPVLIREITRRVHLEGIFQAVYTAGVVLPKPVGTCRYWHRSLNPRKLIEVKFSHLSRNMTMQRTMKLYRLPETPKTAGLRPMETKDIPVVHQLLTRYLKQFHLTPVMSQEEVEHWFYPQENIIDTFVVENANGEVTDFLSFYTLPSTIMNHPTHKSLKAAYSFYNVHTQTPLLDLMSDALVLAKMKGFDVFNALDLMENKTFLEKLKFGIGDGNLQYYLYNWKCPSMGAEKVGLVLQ
T1 sequence (O60551 whole entry): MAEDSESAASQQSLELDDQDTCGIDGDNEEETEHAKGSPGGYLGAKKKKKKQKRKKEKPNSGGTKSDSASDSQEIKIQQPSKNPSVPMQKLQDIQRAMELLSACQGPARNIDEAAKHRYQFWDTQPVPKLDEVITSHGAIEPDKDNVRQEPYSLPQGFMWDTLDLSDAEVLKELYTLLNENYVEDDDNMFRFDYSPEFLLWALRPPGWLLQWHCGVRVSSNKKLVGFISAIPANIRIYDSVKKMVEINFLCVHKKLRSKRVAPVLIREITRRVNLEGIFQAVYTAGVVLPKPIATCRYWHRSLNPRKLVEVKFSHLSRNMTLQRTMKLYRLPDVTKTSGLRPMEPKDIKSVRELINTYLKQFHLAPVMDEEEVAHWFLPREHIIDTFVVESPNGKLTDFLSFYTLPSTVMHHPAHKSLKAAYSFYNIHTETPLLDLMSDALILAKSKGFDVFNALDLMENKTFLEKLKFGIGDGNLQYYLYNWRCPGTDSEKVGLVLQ
Test: Apparent binding affinity against Human NMT.
Type: protein assay

Row | Ki | SMILES
9 | 4200 nM | NCCCC[C@H](NC(=O)[C@H](CO)NC(=O)CCCCCCCCCCn1ccnc1)C(=O)NCCC1CCCCC1

Molecular target: Peptide N-myristoyltransferase (Candida albicans)
Remark: another data set of the same source

Row | IC50 | SMILES
10 | 780 nM | CC(C)CCNC(=O)[C@H](CCCCN)NC(=O)[C@H](CO)NC(=O)CCCCCCCCCCN
11 | 1200 nM | CC(C)C[C@H](NC(=O)[C@H](CCCCN)NC(=O)[C@H](CO)NC(=O)CCCCCCCCCCN)C(N)=O (H-[Aun]SKL-NH2)
12 | 420 nM | NCCCC[C@H](NC(=O)[C@H](CO)NC(=O)Cc1ccc(CCCCn2ccnc2)cc1)C(=O)NCCC1CCCCC1
13 | 1600 nM | NCCCC[C@H](NC(=O)[C@H](CO)NC(=O)CCCCCCCCCCn1ccnc1)C(=O)NCCC1CCCCC1
14 | 300 nM | NCCCCCCCCCCC(=O)N[C@@H](CO)C(=O)N[C@@H](CCCCN)C(=O)NCCC1CCCCCCC1

Molecular target: T1, Peptide N-myristoyltransferase
Test: Inhibitory activity against human N-Myristoyltransferase (NMT).
Type: protein assay

Row | IC50 | SMILES
15 | 420 nM | CC(C)CCNC(=O)[C@H](CCCCN)NC(=O)[C@H](CO)NC(=O)CCCCCCCCCCN
16 | 230 nM | CC(C)C[C@H](NC(=O)[C@H](CCCCN)NC(=O)[C@H](CO)NC(=O)CCCCCCCCCCN)C(N)=O (H-[Aun]SKL-NH2)
17 | 16000 nM | NCCCC[C@H](NC(=O)[C@H](CO)NC(=O)Cc1ccc(CCCCn2ccnc2)cc1)C(=O)NCCC1CCCCC1
18 | 11400 nM | NCCCC[C@H](NC(=O)[C@H](CO)NC(=O)CCCCCCCCCCn1ccnc1)C(=O)NCCC1CCCCC1
19 | 1140 nM | NCCCCCCCCCCC(=O)N[C@@H](CO)C(=O)N[C@@H](CCCCN)C(=O)NCCC1CCCCCCC1
